Tests used:
SK-Br-3 cells = experiment: SK-Br-3 cell growth inhibition test (SRB assay); assay type: cell-based, human; conditions: 72 h
Method: SK-Br-3 Cell Growth Inhibition Test (SRB Assay)
(§1) II. Reagents and Consumable Materials
Culture medium: 85% DMEM+15% FBS; pancreatin (0.25% (w/v) solution was formulated with PBS, 0.53 mM of EDTA was added in the formulation); PBS; 96-well culture plate.
(§2) 1. A plate (10 cm) of cells in logarithmic growth phase that were normally cultured was collected;
(§3) 2. The culture solution was sucked out. The plate was washed with 5 mL of PBS once or twice;
(§4) 3. 1.5 mL of 0.25% pancreatin was added to the plate to infiltrate the cells;
4. The pancreatin was sucked out. The culture plate was placed in an incubator. Digestion was carried out for about 2 min at 37° C.;
(§5) 5. 4 mL of complete culture solution was added to the culture plate to stop the digestion. The cells were carefully scoured with micropipette (1 mL) to give a uniform single cell suspension. The suspension was implanted into a 96-well cell culture plate by 10000 cells/100 μL per well. The culture plate was incubated overnight under 5% CO2 at 37° C. In day 2, 100 μL of culture solution comprising a compound was added in each well. The plate was further incubated for 72 h under 5% CO2 at 37° C.;
(§6) 6. The culture solution was sucked out. 100 uL of TCA fixed cells which were diluted to 10% were added to each well. The plate was kept in a refrigerator for 1 h at 4° C.
7. TCA stationary liquid was sucked out. […]
13. OD values were determined at […]. […]

786-O cells = experiment: 786-O cell growth inhibition test (MTT assay); assay type: cell-based, human; conditions: 72 h
Method: 786-O Cell Growth Inhibition Test (MTT Assay)
as §1
(§7) Culture medium: 90% RPMI1640+10% FBS (fetal calf serum); Pancreatin (0.25% (w/v) solution was formulated with PBS, 0.53 mM of EDTA was added in the formulation); PBS; 96-well culture plate.
as §2, §3
(§8) 3. PBS was sucked out. 1.5 mL of 0.25% pancreatin was added to the plate to infiltrate the cells for 1 min;
(§9) 4. The culture plate was placed in an incubator. Digestion was carried out for about 1 min at 37° C.;
as §5, with “5. 3 mL of” for “5. 4 mL of”, “a uniform cell suspension.” for “a uniform single cell suspension.”, “cell culture disc by 2000” for “cell culture plate by 10000”, “disc by 2000 cells/100 μL” for “plate by 10000 cells/100 μL”
(§10) 6. The culture solution was sucked out;
(§11) 7. 100 μL of serum-free culture solution containing 0.5 mg/mL MTT was added in each well. The plate was incubated for 3 h;
(§12) 8. The culture solution was carefully sucked out;
(§13) 9. 100 μL of DMSO was added in each well and vibrated to dissolve;
(§14) 10. OD values were determined at 490 nM.
(§15) IV. Results and Treatments
(§16) 1. Calculation of Relative Inhibition Ratio The inhibition ratio of a compound on cell growth=(PC−n)/(PC−NC)×100%
(§17) PC: OD values of cells after normal growth in control wells without a compound;
(§18) n: OD values of cells after growth in test wells with a compound;
(§19) NC: Background OD values of blank wells without a compound and cells.

DU-145 cells = experiment: DU-145 cell growth inhibition test (MTT assay); assay type: cell-based; conditions: 72 h
Method: DU-145 Cell Growth Inhibition Test (MTT Assay)
as §1
Culture medium: 90% EMEM+10% FBS (fetal calf serum); Pancreatin (0.25% (w/v) solution was formulated with PBS, 0.53 mM of EDTA was added in the formulation); PBS; 96-well culture plate.
as §2, §3, §8, §9
as §5, with “5. 3 mL of” for “5. 4 mL of”, “a uniform cell suspension.” for “a uniform single cell suspension.”, “cell culture disc by 4000” for “cell culture plate by 10000”, “disc by 4000 cells/100 μL” for “plate by 10000 cells/100 μL”
as §10, §11, §12, §13, §14, §15, §16, §17, §18, §19

Hep3B cells = experiment: Hep3B cell growth inhibition test (SRB assay); assay type: cell-based; conditions: 72 h
Method: Hep3B Cell Growth Inhibition Test (SRB Assay)
as §1
Culture medium: 90% RPMI-1640+10% FBS; Pancreatin (0.25% (w/v) solution was formulated with PBS, 0.53 mM of EDTA was added in the formulation); PBS; 96-well culture plate.
as §2, §3, §4
(§20) 4. The pancreatin was sucked out. The culture plate was placed in an incubator. Digestion was carried out for about 3 min at 37° C.;
as §5, with “5000” for “10000”
as §6
(§21) 7. TCA stationary liquid was sucked out. Each well was washed with 150 μL of ddH2O five times;
(§22) 8. After the stationary liquid was cleansed, the plate was dried in the air at the room temperature;
(§23) 9. 60 μL of SRB staining solution was added in each well. The well was stained for 15 min at the room temperature;
(§24) 10. The SRB staining solution was sucked out. Each well was washed with 150 μL of 1% glacial acetic acid five times;
(§25) 11. After the SRB staining solution was cleansed, the plate was dried in the air at the room temperature;
(§26) 12. 100 μL of 10 mM Tris was added in each well. The plate was vibrated to dissolve out SRB;
(§27) 13. OD values were determined at 570 nM.
as §15
1. Calculation of Relative Inhibition Ratio The inhibition ratio of the compound on cell growth=(PC−n)/(PC−NC)×100% […]

A375 cells = experiment: A375 cell growth inhibition test (MTT assay); assay type: cell-based, human; conditions: 72 h
Method: A375 Cell Growth Inhibition Test (MTT Assay)
as §1
Culture medium: 90% DMEM+10% FBS (fetal calf serum); Pancreatin (0.25% (w/v) solution was formulated with PBS, 0.53 mM of EDTA was added in the formulation); PBS; 96-well culture plate.
as §2, §3, §8
(§28) 4. The culture plate was placed in an incubator. Digestion was carried out for about 5 min at 37° C.;
(§29) 5. 3 mL of complete culture solution was added to the culture plate to stop the digestion. The cells were carefully scoured with micropipette (1 ml) to give a uniform cell suspension. The suspension was implanted into a 96-well cell culture disc by 3000 cells/100 μL per well. The culture plate was incubated overnight under 5% CO2 at 37° C. In day 2, 100 μL of culture solution comprising a compound was added in each well. The plate was further incubated for 72 h under 5% CO2 at 37° C.;
as §10, §11, §12, §13, §14, §15, §16, §17, §18, §19

A431 cells = experiment: A431 cell growth inhibition test (MTT assay); assay type: cell-based, human; conditions: 72 h
Method: A431 Cell Growth Inhibition Test (MTT Assay)
as §1
Culture medium: 45% DMEM+45% F12+10% FBS (fetal calf serum); Pancreatin (0.25% (w/v) solution was formulated with PBS, 0.53 mM of EDTA was added in the formulation); PBS; 96-well culture plate.
as §2, §3, §8, §28
as §29, with “mL)” for “ml)”, “2500” for “3000”
as §10, §11, §12, §13, §14, §15, §16, §17, §18, §19

MCF-7 cells = experiment: MCF-7 cell growth inhibition test (SRB assay); assay type: cell-based, human; conditions: 73 h
Method: MCF-7 Cell Growth Inhibition Test (SRB Assay)
as §1
Culture medium: 90% EMEM+10% FBS; Pancreatin (0.25% (w/v) solution was formulated with PBS, 0.53 mM of EDTA was added in the formulation); PBS; 96-well culture plate.
as §2, §3, §4, §20
as §5, with “73” for “72”
as §6, §21, §22, §23, §24, §25, §26, §27, §15
1. Calculation of Relative Inhibition Ratio The inhibition ratio of a compound on cell growth=(PC−n)/(PC−NC)×100% […]

NCI-446 cells = experiment: NCI-446 cell growth inhibition test (MTT assay); assay type: cell-based, human; conditions: 72 h
Method: NCI-446 Cell Growth Inhibition Test (MTT Assay)
II. Reagents and Consumable Materials Culture medium: 90% RPMI1640+10% FBS (fetal calf serum); Pancreatin (0.25% (w/v) solution was formulated with PBS, 0.53 mM of EDTA was added in the formulation); PBS; 96-well culture plate.
as §2
2. The culture solution was sucked out. The plate was washed with 5 ml of PBS once or twice;
as §8
(§30) 4. The culture plate was placed in an incubator. Digestion was carried out for about 3 min at 37° C.;
as §29, with “mL)” for “ml)”, “4000” for “3000”
as §10, §11, §12
9. […]
(§31) 10. OD values were determined at 490 nM. […]

NCI-H460 cells = experiment: NCI-H460 cell growth inhibition test (MTT assay); assay type: cell-based, human; conditions: NCI-460 cells (NCI-H460 in method), 72 h
Method: NCI-H460 Cell Growth Inhibition Test (MTT Assay)
as §1, §7, §2, §3, §8, §30
as §29, with “mL)” for “ml)”, “2000” for “3000”
as §10, §11, §12
9. […]
as §31

B16 cells = experiment: B16 cell growth inhibition test (MTT assay); assay type: cell-based, mouse; conditions: 72 h
Method: B16 Cell Growth Inhibition Test (MTT Assay)
as §1, §7, §2, §3, §8, §9
as §29, with “mL)” for “ml)”, “2500” for “3000”
as §10
7. 100 μl of serum-free culture solution containing 0.5 mg/mL MTT was added in each well. The plate was incubated for 3 h;
as §12, §13, §14, §15, §16, §17, §18, §19

[1] = Solubility of the compound in water; assay type: physicochemical
[2] = Storage stability detected by HPLC; assay type: physicochemical; conditions: sealed and stored for 9 months under refrigeration conditions

**Q.** Which IC50 (SK-Br-3 cells) does the source give for `COCCOCCOCCOCCOCCOCCOCCOCCOCCNC(=O)CCC(=O)OCC(=O)C1(O)Cc2c(O)c3c(c(O)c2C(OC2CC(n4cccc4)C(O)C(C)O2)C1)C(=O)c1c(OC)cccc1C3=O` (stereo not shown) [Example 98] here?
**A.** 15 nM

**Q.** Which IC50 (786-O cells) does the source give for `COc1cccc2c1C(=O)c1c(O)c3c(c(O)c1C2=O)CC(O)(C(=O)COC(=O)CCC(=O)NCCOCCOCCOCCOCCOCCOCCOCCO)CC3OC1CC(n2cccc2)C(O)C(C)O1` (stereo not shown) [Example 90] here?
**A.** 90 nM

**Q.** What about the IC50 (DU-145 cells) of the same compound?
**A.** 30 nM

**Q.** And the IC50 (Hep3B cells)?
**A.** 29 nM

**Q.** For `COc1cccc2c1C(=O)c1c(O)c3c(c(O)c1C2=O)CC(O)(C(=O)COC(=O)CCC(=O)NCCN1CCOCC1)CC3O[C@H]1C[C@H](n2cccc2)[C@H](O)[C@H](C)O1` (stereo partly drawn) [Example 89, 10-((3′-(pyrrol-1-yl)-2′,3′,6′-trideoxy-alphal-l-lyxo-hexylpyranyl)oxy)-7,8,9,10-tetrahydro-6,8,11-trihydroxy-13-oxo-14-(4-((2-(morpholin-1-yl)ethyl)amino)-4-oxo-butyrato)-1-methoxy-5,12-naphthalenedione acetate], which IC50 (A375 cells) is on record?
**A.** 48 nM

**Q.** And the IC50 (A431 cells)?
**A.** 46 nM

**Q.** What about the IC50 (MCF-7 cells) of the same compound?
**A.** 333 nM

**Q.** And the IC50 (NCI-446 cells)?
**A.** 140 nM

**Q.** What about the IC50 (NCI-H460 cells) of the same compound?
**A.** 2.5 nM

**Q.** And the IC50 (B16 cells)?
**A.** 3 nM

**Q.** What about the IC50 (DU-145 cells) of the same compound?
**A.** 56 nM

**Q.** For `COc1cccc2c1C(=O)c1c(O)c3c(c(O)c1C2=O)CC(O)(C(=O)COC(=O)CCC(=O)NCCN1CCOCC1)CC3O[C@H]1C[C@H](n2cccc2)[C@H](O)[C@H](C)O1.O=P(O)(O)O` (stereo partly drawn) [Example 96, 10-((3′-(pyrrol-1-yl)-2′,3′,6′-trideoxy-alphal-l-lyxo-hexylpyranyl)oxy)-7,8,9,10-tetrahydro-6,8,11-trihydroxy-13-oxo-14-(4-((2-(morpholin-1-yl)ethyl)amino)-4-oxo-butyrato)-1-methoxy-5,12-naphthalenedione phosphate], which “solubility of the compound in water” value [1] is on record?
**A.** more than 26 mg/ml

**Q.** And the “stability on storage (degraded product by HPLC)” value [2]?
**A.** No obvious degraded product was observed
